For seven compounds, Activity and MIC results are on record in ChEMBL document CHEMBL3352247, “Synthesis and antimycobacterial evaluation of 5-alkylamino-N-phenylpyrazine-2-carboxamides” (Bioorg Med Chem, 2015).

The test system of experiment [1] is Trichophyton mentagrophytes. Kind of experiment: Antifungal activity against Trichophyton mentagrophytes 445 after 72 to 120 hrs by two-fold dilution method. The class given is functional, organism-based.
Experiment [2] concerns Mycobacterium kansasii. Briefly: Antimycobacterial activity against Mycobacterium kansasii CNCTC My 235/80 after 5 to 7 days by AlamarBlue assay. The format is functional. (Resazurin is reduced to fluorescent resorufin, in cell work by metabolically active cells.)
Experiment [3] deals with Trichosporon asahii. Kind of experiment: Antifungal activity against Trichosporon asahii 1188 after 24 to 48 hrs by two-fold dilution method. The format is functional, organism-based.
The test system of experiment [4] is Staphylococcus aureus. Kind of experiment: Antibacterial activity against Staphylococcus aureus CCM 4516/08 after 24 to 48 hrs by broth microdilution method. The format is functional, organism-based. Background: Dilution methods test growth across graded concentrations, often in twofold steps.
Experiment [5] concerns Mycobacterium tuberculosis. Briefly: Antimycobacterial activity against Mycobacterium tuberculosis H37Rv CNCTC My 331/88 after 10 to 14 days by AlamarBlue assay. The class given is functional.
Experiment [6] concerns Klebsiella pneumoniae. Briefly: Antibacterial activity against ESBL-positive Klebsiella pneumoniae J 14368/08 clinical isolate after 24 to 48 hrs by broth microdilution method. The format is functional, organism-based.
In experiment [7] the test system is Escherichia coli. Briefly: Antibacterial activity against Escherichia coli CCM 4517 after 24 to 48 hrs by broth microdilution method. The class given is functional, organism-based.
Experiment [8] deals with Enterococcus sp. Kind of experiment: Antibacterial activity against Enterococcus sp. J 14365/08 clinical isolate after 24 to 48 hrs by broth microdilution method. The class given is functional, organism-based.
In experiment [9] the test system is Pichia kudriavzevii. Briefly: Antifungal activity against Candida krusei E28 after 24 to 48 hrs by two-fold dilution method. The format is functional, organism-based.
For experiment [10], the system named is Staphylococcus aureus. Briefly: Antibacterial activity against methicillin-resistant Staphylococcus aureus H 5996/08 clinical isolate after 24 to 48 hrs by broth microdilution method. The format is functional, organism-based.
Experiment [11] relates to Candida albicans. Briefly: Antifungal activity against Candida albicans ATCC 44859 after 24 to 48 hrs by two-fold dilution method. The class given is functional, organism-based.
The subject of experiment [12] is Pseudomonas aeruginosa. Kind of experiment: Antibacterial activity against Pseudomonas aeruginosa CCM 1961 after 24 to 48 hrs by broth microdilution method. The class given is functional, organism-based.
Experiment [13] concerns Staphylococcus epidermidis. Kind of experiment: Antibacterial activity against Staphylococcus epidermidis H 6966/08 clinical isolate after 24 to 48 hrs by broth microdilution method. The format is functional, organism-based.
Experiment [14] relates to Nakaseomyces glabratus. Briefly: Antifungal activity against Candida glabrata 20/I after 24 to 48 hrs by two-fold dilution method. The class given is functional, organism-based.
For experiment [15], the system named is Candida tropicalis. Kind of experiment: Antifungal activity against Candida tropicalis 156 after 24 to 48 hrs by two-fold dilution method. The format is functional, organism-based.
Experiment [16] has as its system Enterococcus sp. Briefly: Antibacterial activity against Enterococcus sp. after 24 to 48 hrs by broth microdilution method. The class given is functional.
Experiment [17] is described as follows: Antimycobacterial activity against Mycobacterium avium subsp. avium Chester CNCTC My 80/72 after 5 days by AlamarBlue assay. The format is functional. The note with it: Chester CNCTC My 80/72, 120 h.
Experiment [18] concerns Aspergillus fumigatus. Kind of experiment: Antifungal activity against Aspergillus fumigatus 231 after 24 to 48 hrs by two-fold dilution method. The class given is functional, organism-based.
Experiment [19] relates to Lichtheimia corymbifera. Briefly: Antifungal activity against Absidia corymbifera 272 after 24 to 48 hrs by two-fold dilution method. The class given is functional, organism-based.
The test system of experiment [20] is Klebsiella pneumoniae. Briefly: Antibacterial activity against Klebsiella pneumoniae D 11750/08 clinical isolate after 24 to 48 hrs by broth microdilution method. The format is functional, organism-based.

Values after ≈ are worked out from the molar mass of the structure shown. Active and inactive are the calls of the source. The rule behind the calls is not given here.

The MIC is the lowest concentration that inhibits growth of the organism. As to `CCCCCCNc1cnc(C(=O)Nc2ccccc2Cl)cn1`, the outcome in [1], in experiment [3], in [4], in [6], in [7] and in experiment [8] was inactive. For the same compound, the outcome in experiment [9], in [10], in experiment [11], in experiment [12], in experiment [13] and in [14] was inactive. Also, the outcome in experiment [15], in experiment [18], in experiment [19] and in experiment [20] was inactive. The MIC in experiment [2], in experiment [5] and in experiment [17] was greater than 100 µg/mL in each case. In addition, in experiment [16], the outcome was Active.
Turning to `CCCCCNc1cnc(C(=O)Nc2ccccc2Cl)cn1`, the outcome in [1], in [3], in experiment [4], in experiment [6], in [7] and in experiment [8] was inactive. The outcome in experiment [9], in experiment [10], in [11], in experiment [12], in [13] and in experiment [14] was inactive. Also, the result in experiment [15], in experiment [18], in [19] and in experiment [20] was inactive. In addition, the MIC in experiment [2], in experiment [5] and in experiment [17] was greater than 100 µg/mL each time. The outcome in [16] was Active.
For the compound `CCCCCCCCNc1cnc(C(=O)Nc2ccccc2Cl)cn1`, the outcome in [1], in experiment [3], in [4], in [6], in experiment [7] and in experiment [8] was inactive. The result in experiment [9], in [10], in experiment [11], in [12], in experiment [13] and in [14] was inactive. The outcome in experiment [15], in experiment [18], in experiment [19] and in experiment [20] was inactive. Moreover, the MIC in experiment [2], in experiment [5] and in experiment [17] was greater than 25 µg/mL throughout. In addition, the outcome in experiment [16] was Active.
For `CCCCCCCCNc1cnc(C(=O)Nc2ccccc2)cn1`, the outcome in [1], in experiment [3], in [4], in [6], in experiment [7] and in experiment [8] was inactive. In addition, the outcome in [9], in experiment [10], in experiment [11], in experiment [12], in experiment [13] and in [14] was inactive. For the same compound, the outcome in experiment [15], in [18], in experiment [19] and in experiment [20] was inactive. The minimal inhibitory concentration (MIC) in [2] is greater than 100 µg/mL; in experiment [5] it was 9.6 µM; in [16] it was 62.5 µM (≈ 20.4 µg/mL); in experiment [17] it was greater than 100 µg/mL.
With `CCCCCCCNc1cnc(C(=O)Nc2ccccc2Cl)cn1`, the outcome in [1], in experiment [3], in experiment [4], in experiment [6], in experiment [7] and in experiment [8] was inactive. Besides, the result in experiment [9], in experiment [10], in experiment [11], in [12], in experiment [13] and in experiment [14] was inactive. The outcome in experiment [15], in experiment [18], in experiment [19] and in experiment [20] was inactive. Moreover, the results for the MIC in experiment [2], in [5] and in [17] were greater than 25 µg/mL, 36 µM and greater than 25 µg/mL, respectively. Besides, in experiment [16], the result was Active.
As to `CCCNc1cnc(C(=O)Nc2ccccc2)cn1`, the outcome in experiment [1], in [3], in experiment [4], in experiment [6], in experiment [7] and in experiment [8] was inactive. Moreover, the result in [9], in experiment [10], in [11], in experiment [12], in [13] and in [14] was inactive. Also, the result in [15], in experiment [18], in experiment [19] and in experiment [20] was inactive. The MIC is 48.8 µM in experiment [2], 12.2 µM in experiment [5] and greater than 100 µg/mL in experiment [17]. For the same compound, the outcome in [16] was Active.
In the case of `CCCCNc1cnc(C(=O)Nc2ccccc2Cl)cn1`, the outcome in experiment [1], in experiment [3], in experiment [4], in experiment [6], in experiment [7] and in [8] was inactive. Also, the result in [9], in experiment [10], in [11], in experiment [12], in [13] and in experiment [14] was inactive. For the same compound, the outcome in experiment [15], in experiment [18], in experiment [19] and in [20] was inactive. Also, the MIC in [2] is greater than 100 µg/mL; in [5], greater than 100 µg/mL; in experiment [16], 62.5 µM (≈ 19 µg/mL); in [17], greater than 100 µg/mL.
